According to US12030886B2, “Form of ponatinib” (MACFARLAN SMITH LIMITED, priority 2018, dated 2024):

Test: Solid-form stability under stressed conditions (temperature/relative humidity)
Type: physicochemical
Conditions: for at least four weeks
Description: Form Z of acetic acid solvated hydrate of ponatinib hydrochloride is stable under stressed conditions of about 40° C./75% RH and about 25° C./97% RH for at least four weeks.

Cc1ccc(C(=O)Nc2ccc(CN3CCN(C)CC3)c(C(F)(F)F)c2)cc1C#Cc1cnc2cccnn12 [3-(imidazo[1,2-b]pyridazin-3-ylethynyl)-4-methyl-N-{4-[(4-methylpiperazin-1-yl)methyl]-3-(trifluoromethyl)phenyl}benzamide]
stability under stressed conditions (about 25° C./97% RH): stable | stability under stressed conditions (about 40° C./75% RH): stable
